Laboratory results: patent US20140094462A1, “SONIC HEDGEHOG MODULATORS” (priority 2009, published 2014)
Like-named read-outs stand apart in the source and are kept apart here.

Tests used:
[1] = rcm bond, 12-membered ring
[2] = rcm bond, toluene
ShhN protein = molecular target: T1, ShhN protein (Homo sapiens, UniProt Q15465); test: Surface Plasmon Resonance (SPR) protein binding assay on immobilized ShhN; conditions: SPR, Biacore T100, ShhN immobilized on CM4 chip, 25° C., compound 0.78 μM-25 μM; read-out: KD
T1 construct: auto-cleavage of full length Shh into an active 20 kD N-terminal fragment (ShhN); purchased R&D Systems
T1 sequence (Q15465 24-197 limits assumed, species assumed): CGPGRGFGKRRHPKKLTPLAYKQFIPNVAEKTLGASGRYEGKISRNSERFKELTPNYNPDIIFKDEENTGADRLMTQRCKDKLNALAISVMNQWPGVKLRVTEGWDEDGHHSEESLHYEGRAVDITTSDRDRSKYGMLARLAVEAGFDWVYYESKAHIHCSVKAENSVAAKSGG
Summary of the method: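 Binding to immobilized ShhN measured on a Biacore T100 at 25°C. Signals referenced against underivatized control surfaces, with zero-concentration blank cycles included. Solvent correction applied.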

Gli1 = test: Primary keratinocyte cell culture, reduction in Gli mRNA; format: cell-based; conditions: primary human keratinocytes
Procedure: To study the potency of the compounds of the invention in cells, select compounds of the invention were conducted with keratinocytes and the reduction in Gli mRNA was measured. Culturing of primary human keratinocytes was previously described (Nguyen, B. C., et al., Genes & Dev. 20:1028-1042 (2006)). The full thickness skin model, EpiDermFT System (MatTek, Ashland), consisted of normal, human-derived epidermal keratinocytes and normal, human-derived dermal fibroblasts which have been cultured to form a multilayered, highly differentiated model of the human dermis and epidermis. […] Gene expression is compared by quantifying mRNA levels by real time RT-PCR. For this, total RNA preparations […] are used in a reverse transcriptase reaction with a mix of oligonucleotide dT and random hexamer primers, followed by real time PCR with gene-specific primers (Gli1: Qiagen Quantitect PrimerAssay QT00060501; Gli2: Qiagen Quantitect PrimerAssay QT00018648), using an […] real time detection system (Bio-Rad) according to the manufacturer's recommendation, with SYBR Green (Bio-Rad) for detection.

C3H10T1/2 = test: Induction of osteogenic differentiation (modulation of osteoblast differentiation); conditions: Mus musculus, C3H 10T1/2, read-out: IC50 (nM) C3H10T1/2
Description: Using assays previously described in Dwyer et al., J. Biol. Chem. 282, (2007), 8959-68 and Nakamura et al., Biochm. […] Res. Comm., 237 (1997) 465-9, select compounds of the invention were screened for their ability to modulate osteoblast differentiation.

With `CC(C)(C)OC(=O)C[C@@H]1C/C=C/CCC(=O)O[C@H](c2ccccc2)CNC1=O` as the molecule, how does the ring closure, isolated yield ([1]; from C=CCCC(=O)O[C@@H](CNC(=O)[C@@H](CC=C)CC(=O)OC(C)(C)C)c1ccccc1, Grubbs II (10 mol%), toluene, 10.0 mM, 65.0 °C, 7.0 h) read?
Its ring closure, isolated yield is 73%.

And the ring closure, yield of all isomers ([2]; from C=CCCC(=O)O[C@@H](CNC(=O)[C@@H](CC=C)CC(=O)OC(C)(C)C)c1ccccc1, Grubbs 2nd Generation catalyst, 10.0 mM, 65.0 °C, 7.0 h)?
Its ring closure, yield of all isomers is 73%.

With `CC(C)(C)OC(=O)N[C@@H]1C/C=C/CCC(=O)N[C@H](c2ccc(F)cc2)COC1=O` as the molecule, how does the ring closure, isolated yield ([1]; from C=CCCC(=O)N[C@@H](COC(=O)[C@@H](CC=C)NC(=O)OC(C)(C)C)c1ccc(F)cc1, Grubbs II (10 mol%), DCM, 9.9 mM) read?
The ring closure, isolated yield was 85%.

With `CCO[Si](OCC)(OCC)C1=CCC(C)(C)C(=O)OC[C@@H](c2ccccc2)NC(=O)CC1` as the molecule, how does the ring closure, isolated yield ([1]; from C=CCC(C)(C)C(=O)OC[C@H](NC(=O)CCC(=C)[Si](OCC)(OCC)OCC)c1ccccc1, general RCM procedure (catalyst not printed here), toluene) read?
The ring closure, isolated yield was 6%.

And the ring closure, yield of all isomers ([2]; from C=CCC(C)(C)C(=O)OC[C@H](NC(=O)CCC(=C)[Si](OCC)(OCC)OCC)c1ccccc1)?
Its ring closure, yield of all isomers is 6%.

With `C[C@@H]1C/C=C/CCC(=O)N[C@H](c2ccccc2)CC(=O)O1` as the molecule, how does the ring closure, isolated yield ([1]; from C=CCCC(=O)N[C@H](CC(=O)O[C@@H](C)CC=C)c1ccccc1, Grubbs II (10 mol%), toluene, 10.0 mM) read?
The ring closure, isolated yield was 79%.

For `C[C@@H]1C/C=C/CCNC(=O)[C@H](c2ccccc2)COC1=O`, which ring closure, isolated yield ([1]; from C=CCCNC(=O)[C@@H](COC(=O)[C@H](C)CC=C)c1ccccc1, Grubbs II (10 mol%), toluene, 10.0 mM, 2 steps) is on record?
Its ring closure, isolated yield is 63%.

For `C[C@H]1C/C=C/CCCN[C@H](c2ccccc2)COC1=O`, which ring closure, isolated yield ([1]; from C=CCCCN[C@@H](COC(=O)C(C)CC=C)c1ccccc1, general RCM procedure (catalyst not printed here), toluene, 3 steps) is on record?
The ring closure, isolated yield was 41%.

And the ring closure, yield of all isomers ([2]; from C=CCCCN[C@@H](COC(=O)[C@@H](C)CC=C)c1ccccc1, 3 steps)?
Its ring closure, yield of all isomers is 41%.

With `C[C@@H]1C/C=C/CCC(=O)N[C@H](c2ccccc2)COC1=O` [Example C, (3R,11R,E)-11-methyl-3-phenyl-1-oxa-4-azacyclododec-8-ene-5,12-dione] as the molecule, how does the ring closure, yield of all isomers ([2]; from C=CCCC(=O)N[C@@H](COC(=O)[C@H](C)CC=C)c1ccccc1, Grubbs II, 20.0 mM, 25.0 °C, 12.0 h) read?
The ring closure, yield of all isomers was 37%.

And the Kd (ShhN protein)?
Its Kd is under 0.1 µM.

And the IC50 (Gli1)?
Its IC50 is under 0.1 µM.

What about the IC50 (C3H10T1/2) of the same molecule?
Its IC50 is 100 to 1000 nM.

With `O=C(C[C@@H]1C[C@@H]2O[C@H]2CCC(=O)N[C@H](c2ccccc2)COC1=O)NCc1ccc(Cl)cc1` [Example CD, N-(4-chlorobenzyl)-2-((1S,3S,7R,12S)-4,9-dioxo-7-phenyl-5,13-dioxa-8-azabicyclo[10.1.0]tridecan-3-yl)acetamide] as the molecule, how does the Kd (ShhN protein) read?
Its Kd is 1 to 100 µM.

And the IC50 (Gli1)?
The IC50 was 1 to 100 µM.

Which Kd (ShhN protein) does the source give for `O=C1CC/C=C/C[C@@H](CC(=O)N2CCCCC2)C(=O)NC[C@@H](c2ccccc2)O1` [Example CQ, (2R,6S,E)-6-(2-oxo-2-(piperidin-1-yl)ethyl)-2-phenyl-1-oxa-4-azacyclododec-8-ene-5,12-dione] here?
The Kd was 0.1 to 1 µM.

And the IC50 (Gli1)?
The IC50 was under 0.1 µM.

What about the IC50 (C3H10T1/2) of the same molecule?
The IC50 was under 100 nM.

For `O=C(C[C@@H]1C/C=C/CCC(=O)O[C@H](c2ccccc2)CNC1=O)N[C@@H]1CCCc2ccccc21` [Example CR, 2-((2R,6S,E)-5,12-dioxo-2-phenyl-1-oxa-4-azacyclododec-8-en-6-yl)-N—((R)-1,2,3,4-tetrahydronaphthalen-1-yl)acetamide], which Kd (ShhN protein) is on record?
Its Kd is under 0.1 µM.

What about the IC50 (Gli1) of the same molecule?
The IC50 was under 0.1 µM.

And the IC50 (C3H10T1/2)?
Its IC50 is under 100 nM.

With `O=C(C[C@@H]1C/C=C/CCC(=O)O[C@H](c2ccccc2)CNC1=O)NCCCC(F)(F)F` [Example CT, 2-((2R,6S,E)-5,12-dioxo-2-phenyl-1-oxa-4-azacyclododec-8-en-6-yl)-N-(4,4,4-trifluorobutyl)acetamide] as the molecule, how does the Kd (ShhN protein) read?
The Kd was under 0.1 µM.

And the IC50 (Gli1)?
The IC50 was under 0.1 µM.

What about the IC50 (C3H10T1/2) of the same molecule?
The IC50 was under 100 nM.

For `N[C@@H]1C/C=C/C[C@@H](CC(=O)NCc2ccc(Cl)cc2)C(=O)NC[C@@H](c2ccccc2)OC1=O` [Example CV, 2-((2R,6S,11R,E)-11-amino-5,12-dioxo-2-phenyl-1-oxa-4-azacyclododec-8-en-6-yl)-N-(4-chlorobenzyl)acetamide], which Kd (ShhN protein) is on record?
Its Kd is under 0.1 µM.

What about the IC50 (Gli1) of the same molecule?
Its IC50 is under 0.1 µM.

And the IC50 (C3H10T1/2)?
The IC50 was 100 to 1000 nM.

Which Kd (ShhN protein) does the source give for `C[C@H]1[C@@H](c2ccccc2)OC(=O)CC/C=C/C[C@@H](CC(=O)NCc2ccc(Cl)cc2)C(=O)N1C` [Example CZ, N-(4-chlorobenzyl)-2-((2R,3S,6S,E)-3,4-dimethyl-5,12-dioxo-2-phenyl-1-oxa-4-azacyclododec-8-en-6-yl)acetamide] here?
The Kd was under 0.1 µM.

What about the IC50 (Gli1) of the same molecule?
The IC50 was 0.1 to 1 µM.

And the IC50 (C3H10T1/2)?
The IC50 was 100 to 1000 nM.

Which results are given for `O=C(C[C@@H]1C/C=C/CCC(=O)N[C@@H](c2ccccc2)COC1=O)NCc1ccc(Cl)cc1` [Example DA, N-(4-chlorobenzyl)-2-((3S,11S,E)-5,12-dioxo-3-phenyl-1-oxa-4-azacyclododec-8-en-11-yl)acetamide]?
Kd (ShhN protein): < 0.1 µM; IC50 (Gli1): < 0.1 µM; IC50 (C3H10T1/2): 100 to 1000 nM

For `CC(=O)N[C@H]1C/C=C/C[C@@H](CC(=O)NCc2ccc(Cl)cc2)C(=O)NC[C@@H](c2ccccc2)OC1=O` [Example DJ, 2-((2R,6S,11S,E)-11-acetamido-5,12-dioxo-2-phenyl-1-oxa-4-azacyclododec-8-en-6-yl)-N-(4-chlorobenzyl)acetamide], which Kd (ShhN protein) is on record?
Its Kd is under 0.1 µM.

What about the IC50 (Gli1) of the same molecule?
Its IC50 is over 100 µM.

And the IC50 (C3H10T1/2)?
The IC50 was 100 to 1000 nM.

Which Kd (ShhN protein) does the source give for `O=C1CC/C=C/C[C@@H](CC(=O)N2CCOCC2)C(=O)NC[C@@H](c2ccccc2)O1` [Example DK, (2R,6S,E)-6-(2-morpholino-2-oxoethyl)-2-phenyl-1-oxa-4-azacyclododec-8-ene-5,12-dione] here?
The Kd was under 0.1 µM.

What about the IC50 (Gli1) of the same molecule?
Its IC50 is 0.1 to 1 µM.

What about the IC50 (C3H10T1/2) of the same molecule?
The IC50 was 1000 to 100000 nM.

For `CC(=O)N[C@H]1C/C=C/C[C@@H](CC(=O)NCc2ccc(Cl)cc2)C(=O)N(C)[C@@H](C)[C@@H](c2ccccc2)OC1=O` [Example DM, 2-((2R,3S,6S,11S,E)-11-acetamido-3,4-dimethyl-5,12-dioxo-2-phenyl-1-oxa-4-azacyclododec-8-en-6-yl)-N-(4-chlorobenzyl)acetamide], which Kd (ShhN protein) is on record?
The Kd was under 0.1 µM.

And the IC50 (Gli1)?
The IC50 was 0.1 to 1 µM.

And the IC50 (C3H10T1/2)?
Its IC50 is 1000 to 100000 nM.

With `CN1CCC(CNC(=O)C[C@@H]2C/C=C/CCC(=O)O[C@H](c3ccccc3)CNC2=O)CC1` [Example DN, 2-((2R,6S,E)-5,12-dioxo-2-phenyl-1-oxa-4-azacyclododec-8-en-6-yl)-N-((1-methylpiperidin-4-yl)methyl)acetamide] as the molecule, how does the Kd (ShhN protein) read?
Its Kd is under 0.1 µM.

What about the IC50 (Gli1) of the same molecule?
The IC50 was 0.1 to 1 µM.

And the IC50 (C3H10T1/2)?
Its IC50 is 1000 to 100000 nM.

Which Kd (ShhN protein) does the source give for `O=C(C[C@@H]1C[C@H](O)[C@@H](O)CCC(=O)N[C@H](c2ccccc2)COC1=O)NCc1ccc(Cl)cc1` [Example E, N-(4-chlorobenzyl)-2-((3R,8S,9S,11S)-8,9-dihydroxy-5,12-dioxo-3-phenyl-1-oxa-4-azacyclododecan-11-yl)acetamide] here?
The Kd was under 0.1 µM.

What about the IC50 (Gli1) of the same molecule?
Its IC50 is under 0.1 µM.

And the IC50 (C3H10T1/2)?
The IC50 was 1000 to 100000 nM.

Which results are given for `O=C(C[C@@H]1C/C=C/CCC(=O)O[C@H](c2ccccc2)CNC1=O)NCC1CCOCC1` [Example EF, 2-((2R,6S,E)-5,12-dioxo-2-phenyl-1-oxa-4-azacyclododec-8-en-6-yl)-N-((tetrahydro-2H-pyran-4-yl)methyl)acetamide]?
Kd (ShhN protein): 1 to 100 µM; IC50 (Gli1): 1 to 100 µM

For `O=C1CC/C=C/C[C@@H](CC(=O)N2CCN(c3ccccc3)CC2)C(=O)NC[C@@H](c2ccccc2)O1` [Example ES, (2R,6S,E)-6-(2-oxo-2-(4-phenylpiperazin-1-yl)ethyl)-2-phenyl-1-oxa-4-azacyclododec-8-ene-5,12-dione], which Kd (ShhN protein) is on record?
The Kd was 0.1 to 1 µM.

What about the IC50 (Gli1) of the same molecule?
Its IC50 is 0.1 to 1 µM.

What does the source list for `CC1(C)O[C@H]2CCC(=O)O[C@H](c3ccccc3)CNC(=O)[C@H](CC(=O)NCc3ccc(Cl)cc3)C[C@@H]2O1` [Example I, N-(4-chlorobenzyl)-2-((3aS,8R,12S,13aS)-2,2-dimethyl-6,11-dioxo-8-phenyldecahydro-3aH-[1,3]dioxolo[4,5-h][1,4]oxaazacyclododecin-12-yl)acetamide]?
Kd (ShhN protein): < 0.1 µM; IC50 (Gli1): < 0.1 µM; IC50 (C3H10T1/2): 1000 to 100000 nM

For `O=C(O)C[C@@H]1C/C=C/CCC(=O)O[C@H](c2ccccc2)CNC1=O` [GC, 2-((2R,6S,E)-5,12-dioxo-2-phenyl-1-oxa-4-azacyclododec-8-en-6-yl)acetic acid], which Kd (ShhN protein) is on record?
The Kd was over 100 µM.

What about the IC50 (Gli1) of the same molecule?
The IC50 was over 100 µM.

For `CN1C(=O)CC/C=C/C[C@@H](CC(=O)NCc2ccc(Cl)cc2)C(=O)OC[C@H]1c1ccccc1` [GH, N-(4-chlorobenzyl)-2-((3R,11S,E)-4-methyl-5,12-dioxo-3-phenyl-1-oxa-4-azacyclododec-8-en-11-yl)acetamide], which Kd (ShhN protein) is on record?
Its Kd is 1 to 100 µM.

And the IC50 (Gli1)?
Its IC50 is 1 to 100 µM.
